Experimental data published in patent US9212132B2, “(Meth)acrylic acid ester, activation energy ray curing composition, and inkjet recording ink” (Ricoh Company Ltd., priority 2011, dated 2015).
One block for each molecule: values may come before it.

Columns and labels:
[1] = Evaluation of photopolymerization reactivity (Photo-DSC); assay type: physicochemical; details: ink: 950 mg monomer compound + 50 mg IRGACURE 907; 365 nm, 200 mW/cm^2
Procedure: Inks for evaluation were each prepared by mixing 950 mg of the monomer compound presented in a respective column of each Example or Comparative Example in Table 1 with 50 mg of 2-methyl-1-[4-(methylthio)phenyl]-2-morpholinopropan-1-one (IRGACURE 907, manufactured by BASF Japan Ltd.) serving as a polymerization initiator, by means of a magnetic stirrer.
An evaluation test for photopolymerization reactivity was performed on each ink using a measuring device combining DSC-7020 manufactured by Seiko Instruments Inc. with a spot light source (LA-410UV) manufactured by HAYASHI WATCH-WORKS CO., LTD. (referred to as Photo-DSC hereinafter). As for the light for radiation, light having wavelength of 365 nm was used, and the light quantity was set to 200 mW/cm^2.
The calorific value of the polymerization reaction carried out after radiation of light was measured by Photo-DSC. A measurement of the calorific value, which was obtained when light was applied for sufficient time to complete a polymerization reaction of the monomer compound, was performed twice on one sample. The calorific value obtained with the first measurement contains the calorific value from radiation of light as well as the calorific value from the polymerization reaction of the monomer compound. Therefore, the sample which completed the polymerization reaction by the first measurement was subjected to radiation of light under the same condition, and the calorific value of the heat other than the heat generated from the polymerization reaction of the monomer compound was measured. The calorific value of the polymerization reaction of the monomer compound was determined with a difference between the calorific value obtained in the first measurement and the calorific value obtained in the second measurement.
As for the exothermic characteristic thereof, the time required to achieve the maximum calorific value from the time for starting radiation of light was determined as T1 (sec.), which was used as an index for comparing the speed of the photopolymerization reaction.

[2] = Evaluation of photocuring ability (photorheometer); assay type: physicochemical; details: 365 nm; for Photocuring (photorheometer) Elastic modulus: ink: 950 mg monomer + 50 mg IRGACURE 907, 50 mW/cm^2, 10 μm gap, saturated elastic modulus; for Photocuring (photorheometer) Curing energy: light energy applied until elastic modulus saturated; for Photocuring (photorheometer) Curing energy / Photocuring result in words (curing state, elastic modulus): 50 mW/cm^2
Procedure: An evaluation for curing ability from photopolymerization was performed on each ink using a measuring device combining a rheometer VAR200AD, manufactured by REOLOGICA Instruments AB, with an LED light source (LIGHTNINGCURE LC-L1) manufactured by Hamamatsu Photonics K.K. (referred to as Photorheometer, hereinafter).
A measurement was performed in the following manner. A sample was placed in a gap of 10 μm between a pair of corm plates each having a diameter of 20 mm, and light (365 nm, 50 mW/cm^2) emitted from the LED light source was applied to the sample. A change in viscoelsticity caused by curing was measured, and the time when the elastic modulus (Pa) was saturated was determined as completion of curing. Based on the measurement result, the terminal point of the elastic modulus was determined, which was determined as an index of a curing level. Typically, the level of 1×10^4 (Pa) is a level where the sample is completely cured. Moreover, light energy (curing energy) applied until the elastic modulus was saturated was calculated by the product of light radiation intensity (here, which was 50 mW/cm^2) and a period (sec.) for light radiation.

Photopolymerization reactivity (Photo DSC) T1, time required to achieve the maximum calorific value from start of light radiation [1]: 2.5 s | Photocuring (photorheometer) Elastic modulus [2]: 3.2*10^4 Pa | Photocuring (photorheometer) Curing energy [2]: 210 mJ/cm^2
Structure (SMILES): C=CC(=O)OCCOC(=O)NCCCC [Commercial product (c), reference compound]

Photopolymerization reactivity (Photo DSC) T1, time required to achieve the maximum calorific value from start of light radiation [1]: 4.5 s | Photocuring (photorheometer) Elastic modulus [2]: 1.3*10^4 Pa | Photocuring (photorheometer) Curing energy [2]: 365 mJ/cm^2
Structure (SMILES): C=CC(=O)OCCN1CCOCC1 [Commercial product (d), reference compound]

Photopolymerization reactivity (Photo DSC) T1, time required to achieve the maximum calorific value from start of light radiation [1]: 30.3 s | Photocuring (photorheometer) Elastic modulus [2]: 8.6*10^4 Pa | Photocuring (photorheometer) Curing energy [2]: 2,050 mJ/cm^2
Structure (SMILES): C=C(C)C(=O)OCCN1CCOCC1 [Commercial product (e), reference compound]

Photopolymerization reactivity (Photo DSC) T1, time required to achieve the maximum calorific value from start of light radiation [1]: 7.0 s | Photocuring (photorheometer) Elastic modulus [2]: 7.6*10^4 Pa | Photocuring (photorheometer) Curing energy [2]: 380 mJ/cm^2
Structure (SMILES): C=C(C)C(=O)OCCOC(=O)N1CCOCC1 [D-2]

Photopolymerization reactivity (Photo DSC) T1, time required to achieve the maximum calorific value from start of light radiation [1]: 12.0 s | Photocuring (photorheometer) Elastic modulus [2]: 9.0*10^4 Pa | Photocuring (photorheometer) Curing energy [2]: 840 mJ/cm^2
Structure (SMILES): C=C(C)C(=O)OCCOC(=O)N1CCCCC1 [E-2]

Photopolymerization reactivity (Photo DSC) T1, time required to achieve the maximum calorific value from start of light radiation [1]: 3.2 s | Photocuring (photorheometer) Elastic modulus [2]: 8.4*10^4 Pa | Photocuring (photorheometer) Curing energy [2]: 150 mJ/cm^2
Structure (SMILES): C=CC(=O)OC1CCN(C(=O)OCC)CC1 [F-1]

Photopolymerization reactivity (Photo DSC) T1, time required to achieve the maximum calorific value from start of light radiation [1]: 7.0 s | Photocuring (photorheometer) Elastic modulus [2]: 9.4*10^4 Pa | Photocuring (photorheometer) Curing energy [2]: 430 mJ/cm^2
Structure (SMILES): C=C(C)C(=O)OC1CCN(C(=O)OCC)CC1 [F-2]

Photopolymerization reactivity (Photo DSC) T1, time required to achieve the maximum calorific value from start of light radiation [1]: 4.8 s | Photocuring (photorheometer) Elastic modulus [2]: 1.0*10^5 Pa | Photocuring (photorheometer) Curing energy [2]: 210 mJ/cm^2
Structure (SMILES): C=C(C)C(=O)OCC(COC(=O)N(CC)CC)OC(=O)C(=C)C (centres unmarked) [G-4]

Photopolymerization reactivity (Photo DSC) T1, time required to achieve the maximum calorific value from start of light radiation [1]: 3.0 s | Photocuring (photorheometer) Elastic modulus [2]: 1.0*10^5 Pa | Photocuring (photorheometer) Curing energy [2]: 110 mJ/cm^2
Structure (SMILES): C=C(C)C(=O)OCC(CC)(COC(=O)C(=C)C)COC(=O)N(CC)CC [J-4]

Photopolymerization reactivity (Photo DSC) T1, time required to achieve the maximum calorific value from start of light radiation [1]: 2.5 s | Photocuring result in words (curing state, elastic modulus) [2]: (not cured) | Photocuring result in words (curing state, elastic modulus) ([2]; listed as Comparative Example 4): extremely low elastic modulus | Photocuring (photorheometer) Elastic modulus [2]: 1.1*10^3 Pa
Structure (SMILES): C=CC(=O)OCCSCC [Ref. Syn. Ex. 1, 2-acryloxy ethylethyl sulfide, reference compound]

Photopolymerization reactivity (Photo DSC) T1, time required to achieve the maximum calorific value from start of light radiation [1]: 10.3 s | Photocuring result in words (curing state, elastic modulus) [2]: (not cured) | Photocuring result in words (curing state, elastic modulus) ([2]; listed as Comparative Example 7): extremely low elastic modulus | Photocuring (photorheometer) Elastic modulus [2]: <1.0 Pa
Structure (SMILES): C=C(C)C(=O)OCCSCC [Ref. Syn. Ex. 2, 2-methacryloxyethylethyl sulfide, reference compound]

Further lines, the molecule ahead of its results:

Structure (SMILES): C=CC(=O)OCCOC(=O)N(CC)CC [B-1]
Photopolymerization reactivity (Photo DSC) T1, time required to achieve the maximum calorific value from start of light radiation [1]: 3.2 s | Photocuring (photorheometer) Elastic modulus [2]: 9.4*10^3 Pa | Photocuring (photorheometer) Curing energy [2]: 520 mJ/cm^2

Structure (SMILES): C=C(C)C(=O)OCCOC(=O)N(CC)CC [B-2]
Photopolymerization reactivity (Photo DSC) T1, time required to achieve the maximum calorific value from start of light radiation [1]: 10.9 s | Photocuring (photorheometer) Elastic modulus [2]: 8.0*10^4 Pa | Photocuring (photorheometer) Curing energy [2]: 1,950 mJ/cm^2

Structure (SMILES): C=CC(=O)OCCOc1ccccc1 [Commercial product (a), reference compound]
Photopolymerization reactivity (Photo DSC) T1, time required to achieve the maximum calorific value from start of light radiation [1]: 2.5 s | Photocuring (photorheometer) Elastic modulus [2]: 4.8*10^4 Pa | Photocuring (photorheometer) Curing energy [2]: 200 mJ/cm^2

Structure (SMILES): C=C(C)C(=O)OCCOc1ccccc1 [Commercial product (b), reference compound]
Photopolymerization reactivity (Photo DSC) T1, time required to achieve the maximum calorific value from start of light radiation [1]: 19.3 s | Photocuring (photorheometer) Elastic modulus [2]: 8.0*10^4 Pa | Photocuring (photorheometer) Curing energy [2]: 2,020 mJ/cm^2

Structure (SMILES): C=CC(=O)OCCOC(=O)N1CCOCC1 [D-1]
Photopolymerization reactivity (Photo DSC) T1, time required to achieve the maximum calorific value from start of light radiation [1]: 3.2 s | Photocuring (photorheometer) Elastic modulus [2]: 7.9*10^4 Pa | Photocuring (photorheometer) Curing energy [2]: 175 mJ/cm^2

Structure (SMILES): C=CC(=O)OCCOC(=O)N1CCCCC1 [E-1]
Photopolymerization reactivity (Photo DSC) T1, time required to achieve the maximum calorific value from start of light radiation [1]: 4.5 s | Photocuring (photorheometer) Elastic modulus [2]: 5.0*10^4 Pa | Photocuring (photorheometer) Curing energy [2]: 380 mJ/cm^2

Structure (SMILES): C=CC(=O)OCC(COC(=O)N(CC)CC)OC(=O)C=C (centres unmarked) [G-3]
Photopolymerization reactivity (Photo DSC) T1, time required to achieve the maximum calorific value from start of light radiation [1]: 2.4 s | Photocuring (photorheometer) Elastic modulus [2]: 1.0*10^5 Pa | Photocuring (photorheometer) Curing energy [2]: 140 mJ/cm^2

Structure (SMILES): C=CC(=O)OCC(CC)(COC(=O)C=C)COC(=O)N(CC)CC [J-3]
Photopolymerization reactivity (Photo DSC) T1, time required to achieve the maximum calorific value from start of light radiation [1]: 2.4 s | Photocuring (photorheometer) Elastic modulus [2]: 1.0*10^5 Pa | Photocuring (photorheometer) Curing energy [2]: 100 mJ/cm^2
